Data: US6960597B2, “Aza-bridged-bicyclic amino acid derivatives as α4 integrin antagonists” (Orth-McNeil Pharmaceutical, Inc., priority 2000, dated 2005)
Where two headings read alike, the source gives them in different places.

What was measured:
α4β1 integrin receptor = target: T1, α4β1 integrin receptor (Homo sapiens, UniProt P05556+P13612); assay: Ramos Cell Adhesion Assay (α4β1 Mediated Adhesion/VCAM-1); assay type: cell-based; settings: Table III, read-out: Inhibition of Binding of Ramos Cells to Immobilized VCAM-1 IC50
T1 construct: Ramos Cell Adhesion Assay (α4β1 Mediated Adhesion/VCAM-1); endogenous in cells; host or cells: Ramos cells
Protocol: Ramos Cell Adhesion Assay (α4β1 Mediated Adhesion/VCAM-1)
(§1) Immulon 96 well plates (Dynex) were coated with 100 μL recombinant hVCAM-1 at 4.0 μg/mL in 0.05 M NaCO3 buffer pH 9.0 overnight at 4° C. (R&D Systems). Plates were washed 3 times in PBS with 1% BSA and blocked for 1 h @ room temperature in this buffer. PBS was removed and compounds to be tested (50 μL) were added at 2× concentration. Ramos cells, (50 μL at 2×10^6/mL) labeled with 5 μM Calcein AM (Molecular Probes) for 1 h at 37° C., were added to each well and allowed to adhere for 1 h at room temperature. Plates were washed 3× in PBS+1% BSA and cells were lysed for 15 minutes in 100 μL of 1 M Tris pH 8.0 with 1% SDS. The plate was read at 485 nm excitation and 530 nm emission.

human α4β7 = target: T2, human α4β7 (Homo sapiens, UniProt P13612+P26010); assay: α4β7-K562 Cell Adhesion Assay (α4β7 Mediated Adhesion/VCAM-1); assay type: cell-based; settings: Table IV, read-out: Inhibition of Binding of K562 Cells to Immobilized VCAM-1 IC50
T2 construct: expressed in transfected cells
T2 sequence (P13612 34-1032): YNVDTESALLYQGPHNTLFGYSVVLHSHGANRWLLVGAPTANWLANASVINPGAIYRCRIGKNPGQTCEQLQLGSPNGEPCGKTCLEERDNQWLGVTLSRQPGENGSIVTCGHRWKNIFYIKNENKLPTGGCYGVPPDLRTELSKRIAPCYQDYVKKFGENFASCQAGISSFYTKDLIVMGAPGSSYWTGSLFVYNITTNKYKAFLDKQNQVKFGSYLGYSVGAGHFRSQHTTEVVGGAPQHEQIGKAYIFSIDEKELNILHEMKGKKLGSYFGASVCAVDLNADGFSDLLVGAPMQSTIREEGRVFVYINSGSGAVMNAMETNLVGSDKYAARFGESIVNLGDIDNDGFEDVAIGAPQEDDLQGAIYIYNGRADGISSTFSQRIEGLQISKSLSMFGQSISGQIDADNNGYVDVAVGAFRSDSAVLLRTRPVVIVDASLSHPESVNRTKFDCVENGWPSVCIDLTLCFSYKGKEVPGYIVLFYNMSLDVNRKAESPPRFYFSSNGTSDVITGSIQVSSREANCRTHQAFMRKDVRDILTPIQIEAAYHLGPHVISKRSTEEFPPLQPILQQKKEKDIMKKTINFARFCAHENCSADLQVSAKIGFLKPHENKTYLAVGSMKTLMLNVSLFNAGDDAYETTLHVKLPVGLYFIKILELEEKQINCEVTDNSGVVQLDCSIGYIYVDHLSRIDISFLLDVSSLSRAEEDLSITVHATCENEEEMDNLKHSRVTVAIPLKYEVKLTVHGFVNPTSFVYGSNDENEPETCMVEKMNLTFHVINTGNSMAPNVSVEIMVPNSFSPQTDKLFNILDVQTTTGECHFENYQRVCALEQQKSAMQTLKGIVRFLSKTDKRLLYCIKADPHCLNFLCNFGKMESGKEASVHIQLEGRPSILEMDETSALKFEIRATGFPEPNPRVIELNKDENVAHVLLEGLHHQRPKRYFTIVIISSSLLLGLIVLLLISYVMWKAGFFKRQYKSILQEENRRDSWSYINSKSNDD
T2 sequence (P26010 20-798): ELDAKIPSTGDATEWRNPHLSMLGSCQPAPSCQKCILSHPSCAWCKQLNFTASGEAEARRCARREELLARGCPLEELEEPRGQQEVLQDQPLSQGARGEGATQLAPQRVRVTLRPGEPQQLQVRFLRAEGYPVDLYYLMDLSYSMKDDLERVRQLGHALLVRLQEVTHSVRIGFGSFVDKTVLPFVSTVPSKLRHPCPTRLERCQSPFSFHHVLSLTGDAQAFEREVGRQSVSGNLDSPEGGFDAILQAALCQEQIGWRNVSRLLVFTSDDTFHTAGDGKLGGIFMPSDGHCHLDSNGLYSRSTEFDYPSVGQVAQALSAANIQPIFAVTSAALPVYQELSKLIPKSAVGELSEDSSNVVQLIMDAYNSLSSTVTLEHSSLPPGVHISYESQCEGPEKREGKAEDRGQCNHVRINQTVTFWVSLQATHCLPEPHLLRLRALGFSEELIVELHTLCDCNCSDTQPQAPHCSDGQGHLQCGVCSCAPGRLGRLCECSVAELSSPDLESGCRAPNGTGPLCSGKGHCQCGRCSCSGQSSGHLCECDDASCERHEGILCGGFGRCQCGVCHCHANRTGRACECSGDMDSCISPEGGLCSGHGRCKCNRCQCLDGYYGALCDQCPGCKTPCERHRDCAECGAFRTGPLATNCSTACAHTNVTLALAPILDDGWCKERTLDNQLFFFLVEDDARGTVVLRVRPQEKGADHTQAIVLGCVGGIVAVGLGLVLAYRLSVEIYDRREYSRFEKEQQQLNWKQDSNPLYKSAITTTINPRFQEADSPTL
Protocol: α4β7-K562 Cell Adhesion Assay (α4β7 Mediated Adhesion/VCAM-1)
as §1, with “A stable cell line of K562 cells expressing human α4β7,” for “Ramos cells,”

T1 sequence (P05556 21-798, one chain of several): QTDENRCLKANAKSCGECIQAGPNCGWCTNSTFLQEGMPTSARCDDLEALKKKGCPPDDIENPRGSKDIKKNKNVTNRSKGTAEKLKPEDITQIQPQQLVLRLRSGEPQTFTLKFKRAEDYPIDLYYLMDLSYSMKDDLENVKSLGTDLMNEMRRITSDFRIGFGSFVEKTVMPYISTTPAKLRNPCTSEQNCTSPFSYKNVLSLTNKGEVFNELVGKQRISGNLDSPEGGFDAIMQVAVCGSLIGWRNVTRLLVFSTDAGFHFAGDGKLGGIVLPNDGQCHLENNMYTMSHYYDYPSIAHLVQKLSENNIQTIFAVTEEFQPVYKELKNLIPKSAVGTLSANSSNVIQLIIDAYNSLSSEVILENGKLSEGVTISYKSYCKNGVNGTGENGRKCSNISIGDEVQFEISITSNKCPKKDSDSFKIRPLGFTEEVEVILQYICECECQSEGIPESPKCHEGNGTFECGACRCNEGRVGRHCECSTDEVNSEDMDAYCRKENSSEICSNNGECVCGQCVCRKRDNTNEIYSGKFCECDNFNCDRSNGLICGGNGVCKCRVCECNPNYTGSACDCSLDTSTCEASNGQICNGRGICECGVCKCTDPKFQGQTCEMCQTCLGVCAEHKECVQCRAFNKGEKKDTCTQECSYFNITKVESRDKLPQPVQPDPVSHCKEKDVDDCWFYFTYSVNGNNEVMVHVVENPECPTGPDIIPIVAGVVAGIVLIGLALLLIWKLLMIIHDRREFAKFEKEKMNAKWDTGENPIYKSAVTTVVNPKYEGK

Row | SMILES | IC50 (α4β1 integrin receptor) [µM] | IC50 (human α4β7; μM) [µM] | IC50 (human α4β7) [µM] | IC50 (α4β1 integrin receptor; μM) [µM]
1 | Cc1ccc(S(=O)(=O)N2C3CCC(CC3)C2C(=O)N[C@@H](Cc2ccc(NC(=O)c3ccccc3)cc2)C(=O)O)cc1 (stereo partly drawn) [Cpd 25, 4-(benzoylamino)-N-[[2-[(4-methylphenyl)sulfonyl]-2-azabicyclo[2.2.2]oct-3-yl]carbonyl]-L-phenylalanine] | 0.903 | > 10 | – | –
2 | COc1ccc(OC)c(C(=O)c2ccc(C(=O)Nc3ccc(C[C@H](NC(=O)C4C5CCC(CC5)N4S(=O)(=O)c4ccc(C)cc4)C(=O)O)cc3)cc2)c1 (stereo partly drawn) [Cpd 26, 4-[[4-(2,5-dimethoxybenzoyl)benzoyl]amino]-N-[[2-[(4-methylphenyl)sulfonyl]-2-azabicyclo[2.2.2]oct-3-yl]carbonyl]-L-phenylalanine] | 0.669 | > 10 | – | –
3 | Cc1ccc(S(=O)(=O)N2C3CCC(CC3)C2C(=O)N[C@@H](Cc2ccc(NC(=O)Cc3c(Cl)cccc3Cl)cc2)C(=O)O)cc1 (stereo partly drawn) [Cpd 27, 4-[[(2,6-dichlorophenyl)acetyl]amino]-N-[[2-[(4-methylphenyl)sulfonyl]-2-azabicyclo[2.2.2]oct-3-yl]carbonyl]-L-phenylalanine] | 1.09 | > 10 | – | –
4 | O=C(Nc1ccc(C[C@H](NC(=O)C2C3CCC(CC3)N2S(=O)(=O)c2ccccc2)C(=O)O)cc1)Nc1c(Cl)cccc1Cl (stereo partly drawn) [Cpd 28, 4-[[[(2,6-dichlorophenyl)amino]carbonyl]amino]-N-[[2-(phenylsulfonyl)-2-azabicyclo[2.2.2]oct-3-yl]carbonyl]-L-phenylalanine] | 1.6 | > 5 | – | –
5 | Cc1ccc(S(=O)(=O)N2C3CCC(CC3)[C@H]2C(=O)N[C@@H](Cc2ccc(OCc3c(Cl)cccc3Cl)cc2)C(=O)O)cc1 [Cpd 29, 4-[(2,6-dichlorophenyl)methoxy]-N-[[(3S)-2-[[4-methylphenyl)sulfonyl]-2-azabicyclo[2.2.2]oct-3-yl]carbonyl]-L-phenylalanine] | 0.058 | – | 4.94 | –
6 | Cc1ccc(S(=O)(=O)N2C3CCC(CC3)C2C(=O)N[C@@H](Cc2ccc(OCc3ccccc3)cc2)C(=O)O)cc1 (stereo partly drawn) [Cpd 30, 4-(phenylmethoxy)-N-[[2-[(4-methylphenyl)sulfonyl]-2-azabicyclo[2.2.2]oct-3-yl]carbonyl]-L-phenylalanine] | – | > 10 | – | > 5
7 | Cc1ccc(S(=O)(=O)N2C3CCC(CC3)C2C(=O)N[C@@H](Cc2ccc(NC(=O)c3c(C(C)C)cc(C(C)C)cc3C(C)C)cc2)C(=O)O)cc1 (stereo partly drawn) [Cpd 31, 4-[[2,4,6-tris(1-methylethyl)benzoyl]amino]-N-[[2-[(4-methylphenyl)sulfonyl]-2-azabicyclo[2.2.2]oct-3-yl]carbonyl]-L-phenylalanine] | – | > 10 | – | > 5
8 | Cc1ccc(S(=O)(=O)N2C3CCC(CC3)C2C(=O)N[C@@H](Cc2ccc(-n3cccc3)cc2)C(=O)O)cc1 (stereo partly drawn) [Cpd 32, 4-(1H-pyrrol-1-yl)-N-[[2-[(4-methylphenyl)sulfonyl]-2-azabicyclo[2.2.2]oct-3-yl]carbonyl]-L-phenylalanine] | – | > 10 | – | > 5
9 | Cc1ccc(S(=O)(=O)N2C3CCC(CC3)C2C(=O)N[C@@H](Cc2ccc(-c3ccccc3)cc2)C(=O)O)cc1 (stereo partly drawn) [Cpd 33, 4-phenyl-N-[[2-[(4-methylphenyl)sulfonyl]-2-azabicyclo[2.2.2]oct-3-yl]carbonyl]l-L-phenylalanine] | – | > 10 | – | > 5
10 | O=C(Nc1ccc(C[C@H](NC(=O)C2C3CCC(CC3)N2S(=O)(=O)c2ccccc2)C(=O)O)cc1)Nc1c(F)cccc1F (stereo partly drawn) [Cpd 34, 4-[[[(2,6-difluorophenyl)amino]carbonyl]amino]-N-[[2-(phenylsulfonyl)-2-azabicyclo[2.2.2]oct-3-yl]carbonyl]-L-phenylalanine] | – | > 10 | – | > 5
11 | Cc1ccc(S(=O)(=O)N2C3CCC(CC3)C2C(=O)N[C@@H](Cc2cccc(NC(=O)c3c(F)cccc3F)c2)C(=O)O)cc1 (stereo partly drawn) [Cpd 35, 3-[(2,6-difluorobenzoyl)amino]-N-[[2-[(4-methylphenyl)sulfonyl]-2-azabicyclo[2.2.2]oct-3-yl]carbonyl]-L-phenylalanine] | – | > 10 | – | > 5
12 | COc1cccc(OC)c1C(=O)Nc1cccc(C[C@H](NC(=O)C2C3CCC(CC3)N2S(=O)(=O)c2ccc(C)cc2)C(=O)O)c1 (some centres unmarked) [Cpd 36, 3-[(2,6-dimethoxybenzoyl)amino]-N-[[2-[(4-methylphenyl)sulfonyl]-2-azabicyclo[2.2.2]oct-3-yl]carbonyl]phenylalanine] | – | > 10 | – | > 5
13 | Cc1ccc(S(=O)(=O)N2C3CCC(CC3)C2C(=O)N[C@@H](Cc2cccc(NC(=O)c3c(Cl)cccc3Cl)c2)C(=O)O)cc1 (some centres unmarked) [Cpd 37, 3-[(2,6-dichlorobenzoyl)amino]-N-[[2-[(4-methylphenyl)sulfonyl]-2-azabicyclo[2.2.2]oct-3-yl]carbonyl]phenylalanine] | – | > 10 | – | > 5
14 | CN(C(=O)C1C2CCC(CC2)N1S(=O)(=O)c1ccccc1)[C@@H](Cc1ccc(OCc2c(Cl)cccc2Cl)cc1)C(=O)O (some centres unmarked) [Cpd 38, O-[(2,6-dichlorophenyl)methyl]-methyl-N-[[2-(phenylsulfonyl)-2-azabicyclo[2.2.2]oct-3-yl]carbonyl]tyrosine] | – | > 10 | – | > 5
15 | CN(C(=O)[C@H]1C2CCC(CC2)N1S(=O)(=O)c1ccccc1)[C@@H](Cc1ccc(NC(=O)c2c(Cl)cccc2Cl)cc1)C(=O)O [Cpd 39, 4-[(2,6-dichlorobenzoyl)amino]-N-methyl-N-[[(3R)-2-(phenylsulfonyl)-2-azabicyclo[2.2.2]oct-3-yl]carbonyl]-L-phenylalanine] | – | > 10 | – | > 5
16 | O=C(N[C@@H](Cc1ccc(OCc2c(Cl)cccc2Cl)cc1)C(=O)O)C1C2C=CC(CC2)N1S(=O)(=O)c1ccccc1 (stereo partly drawn) [Cpd 40, O-[(2,6-dichlorophenyl)methyl]-N-[[2-(phenylsulfonyl)-2-azabicyclo[2.2.2]oct-5-en-3-yl]carbonyl]-L-tyrosine] | 0.293 | – | 2.51 | –
